≈ marks a conversion by molar mass, not a printed value. Where a SMILES comes first, the peptide text is derived from it. [ ]: non-standard residue; d: D form.
Columns and labels:
[1] = Stability in mouse whole blood (LC-QTOF MS); assay type: in vitro ADME; conditions: peptide 1 mg/ml; 0, 15, 30, 60, 120 minutes; compared to P5 control (FIG. 3)
Procedure: Mouse whole blood was treated with peptide (1 mg/ml) and reacted for 0, 15, 30, 60, and 120 minutes, followed by analyzing the peptides remaining as LC-QTOF MS.

[2] = Determination of solubility; assay type: physicochemical
Procedure: To 5 mg of each of the peptides synthesized by the above method, a small amount of water or butylene glycol was added to measure solubility.

[3] = system: C57BL/6 mice; assay: Hair growth promoting efficacy in mice; assay type: in vivo, mouse; conditions: lower back skin, once a day, after about 4 weeks; P5N 0.1 mM, P5 0.05 and 0.1 mM, MNX 3% (FIG. 11)
Description: It is known that all the hairs of a mouse go through a process in which the hair enters the resting phase at 7 to 8 weeks of age and is converted back to the growing phase. Accordingly, the effect of the peptide of the present invention on the growth phase inducing process was confirmed using C57BL/6 mice. Specifically, 3% of minoxidil (MNX), which is commonly used as a treatment for hair loss and hair growth, on the skin of the lower back of the mouse, the existing adiponectin-derived peptide […] NO: 2), […] and 0.1 mM), and the present peptide […] NO: 2)-NH2) were applied at 0.1 mM concentration, respectively, once a day. Thereafter, hair growth was investigated. As a result, in the group treated with the peptide of the present invention as in the positive controls, it was confirmed […], after about 4 weeks, a proportion of the region where hair was grown in the growth phase among the region where hair was first removed is increased (FIG. 11).

[4] = system: sensitive skin; assay: Sensitive skin improvement, double-blind application study (lactate test, biopsy); assay type: in vivo, human; conditions: for proportion of test group improved from sensitive skin to non-sensitive skin: 0.01%, 27 persons per group
Description: In order to classify patients with sensitive skin, a double-blind organ application study was executed by conducting the lactate puncture test (Contact Dermatitis 2010; 62: 137-49), which is the most widely used and known reliable test for diagnosis of sensitive skin (a total of 54 persons, the peptide of the present invention PSN: GLYYF(SEQ ID NO: 2)-NH2 (APNSN) 0.01% vs control (placebo), 27 persons per application group). From the volunteers who agreed to the biopsy (peptide PSN: GLYYF(SEQ ID NO: 2)-NH2 (APNSN) of the present invention 0.01% vs control material (placebo), 8 persons per application group), the skin tissues at the facial baseline and the skin tissues after 8 weeks application were obtained from total 4 sites (for 2 sites per each) by 2 mm punch. For the obtained skin tissues, quantitative PCR analysis and immunohistochemistry were performed for sensitive skin-related genes and markers including adiponectin. […] Further, at the second visit, it could be seen that 29.6% of the test group was improved from the sensitive skin to the non-sensitive skin. […] There was no significant difference between the above two groups (p=0.327, fisher's exact test). Further, at the 3rd visit, the initial sensitive skin improved to non-sensitive skin in 48.1% of the test group, whereas only 14.8% of the control improved to non-sensitive skin, which is the same as at the 2nd visit. […] Further, since the expression of adiponectin was reduced in the patients having sensitive skin, a change in adiponectin gene expression after APNSN treatment could be an important indicator of sensitivity improvement. Therefore, as a result of confirming the expression of adiponectin, the sub-signaling factor P-AMPK of adiponectin and the sensitivity inducing factor TRPV1 (FIG. 10) through biopsy, the expression adiponectin and P-AMPK was increased after application in the test group containing APNSN, whereas the expression of TRPV1 was decreased. […] On the other hand, there was no statistically significant change in the expression of adiponectin in the control after application of the control material.

[5] = water : butylene glycol mixture, Solvent H2O: BG, mixed solvent
[6] = Solvent BG (butylene glycol), single solvent
[7] = biopsy after application (FIG. 10)

## CC(C)C[C@H](N)C(=O)N[C@@H](Cc1ccc(O)cc1)C(=O)N[C@H](Cc1ccc(O)cc1)C(=O)N[C@@H](Cc1ccccc1)C(=O)O [Peptide P4-4, LYyF (SEQ ID NO: 1)] (H-LY[dY]F-OH; N-terminus assumed)
[1]
  stability (peptides remaining): improved stability

## CC(C)C[C@H](N)C(=O)N[C@@H](Cc1ccc(O)cc1)C(=O)N[C@@H](Cc1ccc(O)cc1)C(=O)N[C@H](Cc1ccccc1)C(=O)O [Peptide P4-5, LYYf (SEQ ID NO: 1)] (H-LYY[dF]-OH; N-terminus assumed)
[2]; water, Solvent H2O, single solvent
  solubility: 2.5 mg/mL (≈ 4.13 mM)

## CC(C)C[C@@H](N)C(=O)N[C@@H](Cc1ccc(O)cc1)C(=O)N[C@@H](Cc1ccc(O)cc1)C(=O)N[C@@H](Cc1ccccc1)C(N)=O [Peptide P4-6, lYYF (SEQ ID NO: 1)-NH2] (H-[dL]YYF-NH2)
[2]; [5]
  solubility: 4 mg/mL (≈ 6.63 mM)

## CC(C)C[C@H](N)C(=O)N[C@@H](Cc1ccc(O)cc1)C(=O)N[C@@H](Cc1ccc(O)cc1)C(=O)N[C@H](Cc1ccccc1)C(N)=O [Peptide P4-9, LYYf (SEQ ID NO: 1)-NH2] (H-LYY[dF]-NH2)
[2]; [5]
  solubility: 4 mg/mL (≈ 6.63 mM)

## CC(C)C[C@H](NC(=O)CN)C(=O)N[C@@H](Cc1ccc(O)cc1)C(=O)N[C@@H](Cc1ccc(O)cc1)C(=O)N[C@@H](Cc1ccccc1)C(=O)O [Peptide P5, GLYYF (SEQ ID NO: 2), reference compound]
[2]; ethanol : propylene glycol mixture, Solvent EtOH: PG (propylene glycol), mixed solvent
  solubility: 1 mg/mL (≈ 1.51 mM)
[3]
  proportion of the region where hair was grown in the growth phase: increased

## CC(C)C[C@@H](NC(=O)CN)C(=O)N[C@@H](Cc1ccc(O)cc1)C(=O)N[C@@H](Cc1ccc(O)cc1)C(=O)N[C@@H](Cc1ccccc1)C(=O)O [Peptide P5-1, GlYYF (SEQ ID NO: 2)]
[2]; [6]
  solubility: 3 mg/mL (≈ 4.53 mM)

## CC(C)C[C@H](NC(=O)CN)C(=O)N[C@@H](Cc1ccc(O)cc1)C(=O)N[C@H](Cc1ccc(O)cc1)C(=O)N[C@@H](Cc1ccccc1)C(=O)O [Peptide P5-3, GLYyF (SEQ ID NO: 2)]
[2]; [5]
  solubility: 3 mg/mL (≈ 4.53 mM)

## CC(C)C[C@H](NC(=O)CN)C(=O)N[C@@H](Cc1ccc(O)cc1)C(=O)N[C@@H](Cc1ccc(O)cc1)C(=O)N[C@H](Cc1ccccc1)C(=O)O [Peptide P5-4, GLYYf (SEQ ID NO: 2)]
[2]; [6]
  solubility: 3 mg/mL (≈ 4.53 mM)

## CC(C)C[C@H](NC(=O)CN)C(=O)N[C@@H](Cc1ccc(O)cc1)C(=O)N[C@@H](Cc1ccc(O)cc1)C(=O)N[C@@H](Cc1ccccc1)C(N)=O [Peptide P5-5, GLYYF (SEQ ID NO: 2)-NH2]
[1]
  stability (peptides remaining): improved stability
[4]; 2nd visit (4 weeks after application)
  proportion of test group improved from sensitive skin to non-sensitive skin: 29.6%
[4]; 3rd visit (8 weeks after application)
  proportion of test group improved from sensitive skin to non-sensitive skin: 48.1%
[4]; 2nd and 3rd visit (FIG. 9)
  sensitive skin to non-sensitive skin in lactic acid test: significantly improved
[4]; [7]
  expression of P-AMPK: increased
  expression of TRPV1: decreased
  expression of adiponectin: increased
[4]; twice a day for 8 weeks, biopsy
  increase of expression of adiponectin compared to before application: more than 4 times
[3]
  proportion of the region where hair was grown in the growth phase: increased

## CC(C)C[C@H](NC(=O)CN)C(=O)N[C@@H](Cc1ccc(O)cc1)C(=O)N[C@H](Cc1ccc(O)cc1)C(=O)N[C@@H](Cc1ccccc1)C(N)=O [Peptide P5-8, GLYyF (SEQ ID NO: 2)-NH2]
[2]; [6]
  solubility: 3 mg/mL (≈ 4.54 mM)

From US20230365643A1, “PEPTIDE, AND COSMETIC COMPOSITION AND PHARMACEUTICAL COMPOSITION COMPRISING SAME” (SEOUL NATIONAL UNIVERSITY HOSPITAL, priority 2020, published 2023)
